Reference: ChEMBL document CHEMBL1148985, “27-norlanostane glycosides from the bulbs of Muscari paradoxum” (J Nat Prod, 2004)
The source made the active and inactive calls. The rule behind the calls is not given here.

system: HSC-2; assay: Cytotoxicity against human HSC2 cells assessed as cell viability up to 100 uM after 24 hrs; assay type: functional, cell-based; details: not given

SMILES | Activity
CCC(=O)[C@H]1C[C@@H](C)[C@]2(CC(=O)[C@@]3(C)C4=C(CC[C@@]32C)[C@@]2(C)CC[C@H](O[C@@H]3O[C@H](CO[C@@H]5OC[C@H](O)[C@H](O)[C@H]5O[C@@H]5O[C@H](CO)[C@@H](O)[C@H](O[C@@H]6OC[C@H](O)[C@H](O)[C@H]6O[C@@H]6OC[C@@H](O)[C@H](O)[C@H]6O)[C@H]5O[C@@H]5O[C@@H](C)[C@H](O)[C@@H](O)[C@H]5O)[C@@H](O)[C@H](O)[C@H]3O)[C@](C)(CO)[C@@H]2CC4)O1 | inactive
CCC(=O)[C@H]1C[C@@H](C)[C@]2(CC(=O)[C@@]3(C)C4=C(CC[C@@]32C)[C@@]2(C)CC[C@H](O[C@@H]3O[C@H](CO[C@@H]5OC[C@H](O)[C@H](O)[C@H]5O[C@@H]5O[C@H](CO)[C@@H](O)[C@H](O)[C@H]5O[C@@H]5OC[C@](O)(CO)[C@H]5O)[C@@H](O)[C@H](O)[C@H]3O)[C@](C)(CO)[C@@H]2CC4)O1 | inactive
CCC(=O)[C@H]1C[C@@H](C)[C@]2(CC(=O)[C@@]3(C)C4=C(CC[C@@]32C)[C@@]2(C)CC[C@H](O[C@@H]3O[C@H](CO[C@@H]5OC[C@H](O)[C@H](O)[C@H]5O[C@@H]5O[C@H](CO)[C@@H](O)[C@H](O)[C@H]5O[C@@H]5O[C@@H](C)[C@H](O)[C@@H](O)[C@H]5O)[C@@H](O)[C@H](O)[C@H]3O)[C@](C)(CO)[C@@H]2CC4)O1 | inactive

system: HSC-2; assay: Cytotoxicity against human HSC2 cells assessed as cell viability after 24 hrs; assay type: functional, cell-based; details: HSC-2, 24 h

SMILES | IC50 [µM]
CCC(=O)[C@@H]1C[C@@H](C)[C@]2(CC[C@@]3(C)C4=C(CC[C@@]32C)[C@@]2(C)CC[C@H](O[C@@H]3O[C@H](CO[C@@H]5OC[C@H](O)[C@H](O)[C@H]5O[C@@H]5O[C@H](CO)[C@@H](O)[C@H](O)[C@H]5O[C@@H]5O[C@@H](C)[C@H](O)[C@@H](O)[C@H]5O)[C@@H](O)[C@H](O)[C@H]3O)[C@](C)(CO)[C@@H]2CC4)O1 | 32
CCC(=O)[C@@H]1C[C@@H](C)[C@]2(CC[C@@]3(C)C4=C(CC[C@@]32C)[C@@]2(C)CC[C@H](O[C@@H]3O[C@H](CO[C@@H]5OC[C@H](O)[C@H](O)[C@H]5O[C@@H]5O[C@H](CO)[C@@H](O)[C@H](O[C@@H]6OC[C@H](O)[C@H](O)[C@H]6O[C@@H]6OC[C@@H](O)[C@H](O)[C@H]6O)[C@H]5O[C@@H]5O[C@@H](C)[C@H](O)[C@@H](O)[C@H]5O)[C@@H](O)[C@H](O)[C@H]3O)[C@](C)(CO)[C@@H]2CC4)O1 | 7.3
CCC(=O)[C@@H]1C[C@@H](C)[C@]2(CC(=O)[C@@]3(C)C4=C(CC[C@@]32C)[C@@]2(C)CC[C@H](O[C@@H]3O[C@H](CO[C@@H]5OC[C@H](O)[C@H](O)[C@H]5O[C@@H]5O[C@H](CO)[C@@H](O)[C@H](O)[C@H]5O[C@@H]5OC[C@](O)(CO)[C@H]5O)[C@@H](O)[C@H](O)[C@H]3O)[C@](C)(CO)[C@@H]2CC4)O1 | 6.2
CCC(=O)[C@@H]1C[C@@H](C)[C@]2(CC(=O)[C@@]3(C)C4=C(CC[C@@]32C)[C@@]2(C)CC[C@H](O[C@@H]3O[C@H](CO[C@@H]5OC[C@H](O)[C@H](O)[C@H]5O[C@@H]5O[C@H](CO)[C@@H](O)[C@H](O)[C@H]5O[C@@H]5O[C@@H](C)[C@H](O)[C@@H](O)[C@H]5O)[C@@H](O)[C@H](O)[C@H]3O)[C@](C)(CO)[C@@H]2CC4)O1 | 63
CCC(=O)[C@@H]1C[C@@H](C)[C@]2(CC(=O)[C@@]3(C)C4=C(CC[C@@]32C)[C@@]2(C)CC[C@H](O[C@@H]3O[C@H](CO[C@@H]5OC[C@H](O)[C@H](O)[C@H]5O[C@@H]5O[C@H](CO)[C@@H](O)[C@H](O[C@@H]6OC[C@H](O)[C@H](O)[C@H]6O[C@@H]6OC[C@@H](O)[C@H](O)[C@H]6O)[C@H]5O[C@@H]5O[C@@H](C)[C@H](O)[C@@H](O)[C@H]5O)[C@@H](O)[C@H](O)[C@H]3O)[C@](C)(CO)[C@@H]2CC4)O1 | 19
